What is called Ki is a measure of affinity in units of concentration, obtained from inhibition or displacement.

For the first test, the target named is activated ERK2 (Homo sapiens, UniProt P28482). Briefly: ERK2 inhibition spectrophotometric coupled-enzyme assay. The test is classed as biochemical.
Chain of activated ERK2 (P28482 whole entry): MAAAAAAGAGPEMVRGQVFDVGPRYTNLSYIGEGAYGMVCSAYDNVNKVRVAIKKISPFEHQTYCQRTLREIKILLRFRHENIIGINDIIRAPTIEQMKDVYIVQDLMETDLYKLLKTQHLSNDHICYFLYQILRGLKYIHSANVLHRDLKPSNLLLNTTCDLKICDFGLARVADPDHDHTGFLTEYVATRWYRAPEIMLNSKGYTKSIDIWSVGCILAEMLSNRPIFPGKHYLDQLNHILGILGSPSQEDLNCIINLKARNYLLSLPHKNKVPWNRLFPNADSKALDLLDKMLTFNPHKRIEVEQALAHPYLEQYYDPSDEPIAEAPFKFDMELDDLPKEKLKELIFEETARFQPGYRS
Details: not given
How it is done: Compounds are assayed for the inhibition of ERK2 by a spectrophotometric coupled-enzyme assay (Fox et al (1998) Protein Sci 7, 2249). In this assay, a fixed concentration of activated ERK2 (10 nM) is incubated with various concentrations of the compound in DMSO (2.5%) for 10 min. at 30° C. in 0.1 M HEPES buffer, pH 7.5, containing 10 mM MgCl2, 2.5 mM phosphoenolpyruvate, 200 μM NADH, 150 μg/mL pyruvate kinase, 50 μg/mL lactate dehydrogenase, and 200 μM erktide peptide. The reaction is initiated by the addition of 65 μM ATP. The rate of decrease of absorbance at 340 nm is monitored, which indicates the extent of uninhibited enzyme present in the assay. The IC50 is evaluated from the rate data as a function of inhibitor concentration.
The compound numbers correspond to the compound numbers in Tables 1-3.
`O=C(N[C@H](CO)c1ccc(F)c(Cl)c1)c1cc(-c2[nH]ncc2-c2ccc(CN(CCCl)CCCl)c(Cl)c2)c[nH]1` [II-36]: the Ki is below 1000 nM.

The test is the same for the next values; noted with them: activated ERK2 10 nM, 65 μM ATP, 30° C., pH 7.5; read-out: ERK2 Inhibitory Activity (Ki class).
With `CS(=O)(=O)CC(=O)NCc1ccc(-c2cn[nH]c2-c2c[nH]c(C(=O)N[C@H](CO)c3ccccc3)c2)cc1Cl` [II-1], the Ki was below 1000 nM.

Consider `N[C@@H](CO)C(=O)NCc1ccc(-c2cn[nH]c2-c2c[nH]c(C(=O)NC(CO)c3ccc(F)c(Cl)c3)c2)cc1Cl` (stereo partly drawn) [II-15], for which the Ki was below 1000 nM.

In the case of `CC(=O)N[C@@H](C)C(=O)NCc1ccc(-c2cn[nH]c2-c2c[nH]c(C(=O)NC(CO)c3ccc(F)c(Cl)c3)c2)cc1Cl` (stereo partly drawn) [II-10], the Ki was below 1000 nM.

For the compound `CCN(CC)C(=O)CNCc1ccc(-c2cn[nH]c2-c2c[nH]c(C(=O)N[C@H](CO)c3ccc(F)c(Cl)c3)c2)cc1Cl` [II-80], the Ki was below 1000 nM.

As for `CC(C)N(C)Cc1ccc(-c2cn[nH]c2-c2c[nH]c(C(=O)N[C@H](CO)c3ccc(F)c(Cl)c3)c2)cc1Cl` [II-54], the inhibition constant Ki is below 1000 nM.

`C[C@H](N)C(=O)NCc1ccc(-c2cn[nH]c2-c2c[nH]c(C(=O)N[C@H](CO)c3ccc(F)c(Cl)c3)c2)cc1Cl` [II-69]: the Ki is below 1000 nM.

With `CCN(CC)Cc1ccc(-c2cn[nH]c2-c2c[nH]c(C(=O)N[C@H](CO)c3ccc(F)c(Cl)c3)c2)cc1Cl` [II-34], the Ki was below 1000 nM.

As for `CN(C)CCNCc1ccc(-c2cn[nH]c2-c2c[nH]c(C(=O)N[C@H](CO)c3ccc(F)c(Cl)c3)c2)cc1Cl` [II-79], the Ki was below 1000 nM.

On to `CC(=O)N[C@@H](CS)C(=O)NCc1ccc(-c2cn[nH]c2-c2c[nH]c(C(=O)NC(CO)c3ccc(F)c(Cl)c3)c2)cc1Cl` (stereo partly drawn) [II-12], for which the Ki is below 1000 nM.

With `CCOC(=O)CN(CC(=O)OCC)Cc1ccc(-c2cn[nH]c2-c2c[nH]c(C(=O)N[C@H](CO)c3ccc(F)c(Cl)c3)c2)cc1Cl` [II-84], the inhibition constant Ki was below 1000 nM.

For the compound `CCCN(CCC)Cc1ccc(-c2cn[nH]c2-c2c[nH]c(C(=O)N[C@H](CO)c3ccc(F)c(Cl)c3)c2)cc1Cl` [II-28], the inhibition constant (Ki) was below 1000 nM.

With `NC(=O)CN(CC(N)=O)Cc1ccc(-c2cn[nH]c2-c2c[nH]c(C(=O)N[C@H](CO)c3ccc(F)c(Cl)c3)c2)cc1Cl` [II-74], the Ki is below 1000 nM.

With `CC(C)(C)OC(=O)N[C@@H](CO)C(=O)NCc1ccc(-c2cn[nH]c2-c2c[nH]c(C(=O)NC(CO)c3ccc(F)c(Cl)c3)c2)cc1Cl` (stereo partly drawn) [II-14], the Ki is below 1000 nM.

Turning to `N[C@H](CO)C(=O)NCc1ccc(-c2cn[nH]c2-c2c[nH]c(C(=O)N[C@H](CO)c3ccc(F)c(Cl)c3)c2)cc1Cl` [II-56], the Ki was below 1000 nM.

For `CCNC(=O)CN(CC(=O)NCC)Cc1ccc(-c2cn[nH]c2-c2c[nH]c(C(=O)N[C@H](CO)c3ccc(F)c(Cl)c3)c2)cc1Cl` [II-85], the inhibition constant (Ki) was below 1000 nM.

In the case of `CCCNCc1ccc(-c2cn[nH]c2-c2c[nH]c(C(=O)N[C@H](CO)c3ccc(F)c(Cl)c3)c2)cc1Cl` [II-27], the inhibition constant (Ki) was below 1000 nM.

`CCC(=O)CN(CC(=O)CC)Cc1ccc(-c2cn[nH]c2-c2c[nH]c(C(=O)N[C@H](CO)c3ccc(F)c(Cl)c3)c2)cc1Cl` [II-73]: the inhibition constant Ki was below 1000 nM.

Consider `CCC(=O)CNCc1ccc(-c2cn[nH]c2-c2c[nH]c(C(=O)N[C@H](CO)c3ccc(F)c(Cl)c3)c2)cc1Cl` [II-53], for which the inhibitory constant (Ki) was below 1000 nM.

Take `CNC(=O)C(C)N(C)Cc1ccc(-c2cn[nH]c2-c2c[nH]c(C(=O)N[C@H](CO)c3ccc(F)c(Cl)c3)c2)cc1C(F)(F)F` (stereo partly drawn) [II-59]: the Ki is below 1000 nM.

In the case of `CC(C)(C)OC(=O)NCCNCc1ccc(-c2cn[nH]c2-c2c[nH]c(C(=O)N[C@H](CO)c3ccc(F)c(Cl)c3)c2)cc1Cl` [II-37], the inhibitory constant (Ki) is below 1000 nM.

As to `CC(C(=O)N(C)C)N(C)Cc1ccc(-c2cn[nH]c2-c2c[nH]c(C(=O)N[C@H](CO)c3ccc(F)c(Cl)c3)c2)cc1C(F)(F)F` (stereo partly drawn) [II-61], the Ki was below 1000 nM.

For the compound `CN(C)CC(=O)NCc1ccc(-c2cn[nH]c2-c2c[nH]c(C(=O)NC(CO)c3ccc(F)c(Cl)c3)c2)cc1Cl` (stereo not drawn) [II-13], the Ki is below 1000 nM.

Regarding `CN[C@@H](CO)C(=O)NCc1ccc(-c2cn[nH]c2-c2c[nH]c(C(=O)N[C@H](CO)c3ccc(F)c(Cl)c3)c2)cc1Cl` [II-67], the inhibition constant (Ki) was below 1000 nM.

Take `NC(=O)CNCc1ccc(-c2cn[nH]c2-c2c[nH]c(C(=O)N[C@H](CO)c3ccc(F)c(Cl)c3)c2)cc1Cl` [II-76]: the Ki was below 1000 nM.

`CC(=O)NC(CCO)C(=O)NCc1ccc(-c2cn[nH]c2-c2c[nH]c(C(=O)NC(CO)c3ccc(F)c(Cl)c3)c2)cc1Cl` (stereo not drawn) [II-5]: the inhibition constant (Ki) is below 1000 nM.

With `CC(=O)NC(CC[S+](C)[O-])C(=O)NCc1ccc(-c2cn[nH]c2-c2c[nH]c(C(=O)NC(CO)c3ccc(F)c(Cl)c3)c2)cc1Cl` (stereo not drawn) [II-16], the Ki is below 1000 nM.

As to `CCN(CC)CC(=O)NCc1ccc(-c2cn[nH]c2-c2c[nH]c(C(=O)N[C@H](CO)c3ccc(F)c(Cl)c3)c2)cc1Cl` [II-38], the inhibition constant Ki was below 1000 nM.

`CCCCNCc1ccc(-c2cn[nH]c2-c2c[nH]c(C(=O)N[C@H](CO)c3ccc(F)c(Cl)c3)c2)cc1Cl` [II-22]: the Ki is below 1000 nM.

Consider `O=C(N[C@H](CO)c1ccc(F)c(Cl)c1)c1cc(-c2[nH]ncc2-c2ccc(CNCCO)c(Cl)c2)c[nH]1` [II-30], for which the Ki is below 1000 nM.

As to `CC(=O)N[C@H](C)C(=O)NCc1ccc(-c2cn[nH]c2-c2c[nH]c(C(=O)NC(CO)c3ccc(F)c(Cl)c3)c2)cc1Cl` (stereo partly drawn) [II-11], the Ki was below 1000 nM.

Regarding `CCOC(=O)CN(C)Cc1ccc(-c2cn[nH]c2-c2c[nH]c(C(=O)N[C@H](CO)c3ccc(F)c(Cl)c3)c2)cc1Cl` [II-83], the Ki was below 1000 nM.

In the case of `CCOC(=O)C(C)N(C)Cc1ccc(-c2cn[nH]c2-c2c[nH]c(C(=O)N[C@H](CO)c3ccc(F)c(Cl)c3)c2)cc1C(F)(F)F` (stereo partly drawn) [II-64], the Ki was below 1000 nM.

As for `CC(O)CNCc1ccc(-c2cn[nH]c2-c2c[nH]c(C(=O)N[C@H](CO)c3ccc(F)c(Cl)c3)c2)cc1Cl` (stereo partly drawn) [II-31], the inhibitory constant (Ki) is below 1000 nM.

With `CC(NCc1ccc(-c2cn[nH]c2-c2c[nH]c(C(=O)N[C@H](CO)c3ccc(F)c(Cl)c3)c2)cc1C(F)(F)F)C(=O)N(C)C` (stereo partly drawn) [II-60], the Ki was below 1000 nM.

For `CCNC(=O)CNCc1ccc(-c2cn[nH]c2-c2c[nH]c(C(=O)N[C@H](CO)c3ccc(F)c(Cl)c3)c2)cc1Cl` [II-71], the Ki was below 1000 nM.

Turning to `CNC(=O)C(C)NCc1ccc(-c2cn[nH]c2-c2c[nH]c(C(=O)N[C@H](CO)c3ccc(F)c(Cl)c3)c2)cc1C(F)(F)F` (stereo partly drawn) [II-65], the Ki is below 1000 nM.

In the case of `CCN(CC)CCNCc1ccc(-c2cn[nH]c2-c2c[nH]c(C(=O)N[C@H](CO)c3ccc(F)c(Cl)c3)c2)cc1Cl` [II-82], the Ki was below 1000 nM.

Turning to `CC(CC(=O)N(C)C)NCc1ccc(-c2cn[nH]c2-c2c[nH]c(C(=O)N[C@H](CO)c3ccc(F)c(Cl)c3)c2)cc1Cl` (stereo partly drawn) [II-52], the Ki was below 1000 nM.

For `CC(C)NCc1ccc(-c2cn[nH]c2-c2c[nH]c(C(=O)N[C@H](CO)c3ccc(F)c(Cl)c3)c2)cc1C(F)(F)F` [II-57], the inhibitory constant (Ki) was below 1000 nM.

Consider `CCCCN(CCCC)Cc1ccc(-c2cn[nH]c2-c2c[nH]c(C(=O)N[C@H](CO)c3ccc(F)c(Cl)c3)c2)cc1Cl` [II-23], for which the Ki is below 1000 nM.

On to `O=C(CCO)NCc1ccc(-c2cn[nH]c2-c2c[nH]c(C(=O)N[C@H](CO)c3ccccc3)c2)cc1Cl` [II-4], for which the inhibition constant Ki is below 1000 nM.

These data come from patent US6750239B2, “Pyrazole-derived kinase inhibitors and uses thereof” (Vertex Pharmaceuticals Incorporated, priority 2001, dated 2004).
